# Experimental data reported in ChEMBL document CHEMBL1151745, “Identification of potent, selective, and metabolically stable peptide antagonists to the calcitonin gene-related peptide (CGRP) receptor” (J Med Chem, 2008).
# Activity calls are given as the source filed them. The calls are words filed in the database; no cut-off is given here. Where a SMILES comes first, the peptide text is derived from it. [ ]: non-standard residue; d: D form. Tpi = O=C(O)[C@@H]1Cc2c([nH]c3ccccc23)CN1; hArg = N=C(N)NCCCC[C@H](N)C(=O)O; Cit = NC(=O)NCCC[C@H](N)C(=O)O
# Molecular target: Calcitonin gene-related peptide type 1 receptor (Homo sapiens) (UniProt Q16602)
# Assay: Agonist activity at human CGRP1 receptor in human SK-N-MC cells
# Calcitonin gene-related peptide type 1 receptor (Homo sapiens), sequence (Q16602 whole entry, looked up): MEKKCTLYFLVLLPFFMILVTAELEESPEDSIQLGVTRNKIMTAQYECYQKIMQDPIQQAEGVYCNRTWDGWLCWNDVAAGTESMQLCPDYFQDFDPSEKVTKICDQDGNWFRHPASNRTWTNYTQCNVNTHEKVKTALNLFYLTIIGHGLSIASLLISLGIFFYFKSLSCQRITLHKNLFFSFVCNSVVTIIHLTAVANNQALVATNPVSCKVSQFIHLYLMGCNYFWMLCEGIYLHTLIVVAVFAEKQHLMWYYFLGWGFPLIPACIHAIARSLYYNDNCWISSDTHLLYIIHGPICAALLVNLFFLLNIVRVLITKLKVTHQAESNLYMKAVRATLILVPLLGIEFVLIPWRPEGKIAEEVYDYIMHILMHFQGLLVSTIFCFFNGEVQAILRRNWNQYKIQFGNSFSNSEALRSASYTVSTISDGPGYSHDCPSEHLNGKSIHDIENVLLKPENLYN
row,SMILES,Activity
1,CC(=O)N[C@@H](Cc1c[nH]c2ccccc12)C(=O)N[C@H](C(=O)N[C@H](C(=O)N[C@@H](Cc1cnc[nH]1)C(=O)N[C@@H](CCCNC(N)=O)C(=O)N[C@@H](CC(C)C)C(=O)N[C@@H](C)C(=O)NCC(=O)N[C@@H](CC(C)C)C(=O)N[C@@H](CC(C)C)C(=O)N[C@@H](CO)C(=O)N[C@@H](CCCNC(=N)N)C(=O)N[C@@H](CO)C(=O)NCC(=O)NCC(=O)N[C@H](C(=O)N[C@H](C(=O)N[C@@H](CCCNC(=N)N)C(=O)N[C@@H](CCCCN)C(=O)N[C@@H](CC(N)=O)C(=O)N[C@@H](Cc1ccccc1)C(=O)N[C@H](C(=O)N1CCC[C@H]1C(=O)N[C@H](C(=O)N[C@@H](CC(=O)O)C(=O)N[C@H](C(=O)NCC(=O)N1CCC[C@H]1C(=O)N[C@@H](Cc1ccccc1)C(=O)N[C@@H](C)C(=O)N[C@@H](Cc1ccccc1)C(N)=O)C(C)C)[C@@H](C)O)C(C)C)C(C)C)C(C)C)[C@@H](C)O)C(C)C,inactive
2,CC(=O)N[C@@H](Cc1c[nH]c2ccccc12)C(=O)N[C@H](C(=O)N[C@H](C(=O)N[C@@H](Cc1cnc[nH]1)C(=O)N[C@@H](CCCNC(N)=O)C(=O)N[C@@H](CC(C)C)C(=O)N[C@@H](C)C(=O)NCC(=O)N[C@@H](CC(C)C)C(=O)N[C@@H](CC(C)C)C(=O)N[C@@H](CO)C(=O)N[C@@H](CCCNC(N)=O)C(=O)N[C@@H](CO)C(=O)NCC(=O)NCC(=O)N[C@H](C(=O)N[C@H](C(=O)N[C@@H](CCCNC(=N)N)C(=O)N[C@@H](CCCCN)C(=O)N[C@@H](CC(N)=O)C(=O)N[C@@H](Cc1ccccc1)C(=O)N[C@H](C(=O)N1CCC[C@H]1C(=O)N[C@H](C(=O)N[C@@H](CC(=O)O)C(=O)N[C@H](C(=O)NCC(=O)N1C2CCCCC2C[C@H]1C(=O)N[C@@H](Cc1ccccc1)C(=O)N[C@@H](C)C(=O)N[C@@H](Cc1ccccc1)C(N)=O)C(C)C)[C@@H](C)O)C(C)C)C(C)C)C(C)C)[C@@H](C)O)C(C)C (stereo not given in full),inactive
3,CC(=O)N[C@@H](Cc1c[nH]c2ccccc12)C(=O)N[C@H](C(=O)N[C@H](C(=O)N[C@@H](Cc1cnc[nH]1)C(=O)N[C@@H](CCCNC(N)=O)C(=O)N[C@@H](CC(C)C)C(=O)N[C@@H](C)C(=O)NCC(=O)N[C@@H](CC(C)C)C(=O)N[C@@H](CC(C)C)C(=O)N[C@@H](CO)C(=O)N[C@@H](CCCNC(N)=O)C(=O)N[C@@H](CO)C(=O)NCC(=O)NCC(=O)N[C@H](C(=O)N[C@H](C(=O)N[C@@H](CCCCNC(=N)N)C(=O)N[C@@H](CCCCN)C(=O)N[C@@H](CC(N)=O)C(=O)N[C@@H](Cc1ccccc1)C(=O)N[C@H](C(=O)N1CCC[C@H]1C(=O)N[C@H](C(=O)N[C@@H](CC(=O)O)C(=O)N[C@H](C(=O)NCC(=O)N1CCC[C@H]1C(=O)N1Cc2[nH]c3ccccc3c2C[C@H]1C(=O)N[C@@H](C)C(=O)N[C@@H](Cc1ccccc1)C(N)=O)C(C)C)[C@@H](C)O)C(C)C)C(C)C)C(C)C)[C@@H](C)O)C(C)C (Ac-WVTH[Cit]LAGLLS[Cit]SGGVV[hArg]KNFVPTDVGP[Tpi]AF-NH2),inactive
4,CC(=O)N[C@@H](Cc1c[nH]c2ccccc12)C(=O)N[C@H](C(=O)N[C@H]1CCC(=O)NCCCC[C@@H](C(=O)NCC(=O)N[C@@H](CC(C)C)C(=O)N[C@@H](CC(C)C)C(=O)N[C@@H](CO)C(=O)N[C@@H](CCCNC(=N)N)C(=O)N[C@@H](CO)C(=O)NCC(=O)NCC(=O)N[C@H](C(=O)N[C@H](C(=O)N[C@@H](CCCNC(=N)N)C(=O)N[C@@H](CCCCN)C(=O)N[C@@H](CC(N)=O)C(=O)N[C@@H](Cc2ccccc2)C(=O)N[C@H](C(=O)N2CCC[C@H]2C(=O)N[C@H](C(=O)N[C@@H](CC(=O)O)C(=O)N[C@H](C(=O)NCC(=O)N2CCC[C@H]2C(=O)N[C@@H](Cc2ccccc2)C(=O)N[C@@H](C)C(=O)N[C@@H](Cc2ccccc2)C(N)=O)C(C)C)[C@@H](C)O)C(C)C)C(C)C)C(C)C)NC(=O)[C@H](CC(C)C)NC(=O)[C@H](CCCNC(=N)N)NC(=O)[C@H](Cc2cnc[nH]2)NC1=O)C(C)C,inactive
5,CC(=O)N[C@@H](Cc1c[nH]c2ccccc12)C(=O)N[C@H](C(=O)N[C@H](C(=O)N[C@@H](Cc1cnc[nH]1)C(=O)N[C@@H](CCCNC(N)=O)C(=O)N[C@@H](CC(C)C)C(=O)N[C@@H](C)C(=O)NCC(=O)N[C@@H](CC(C)C)C(=O)N[C@@H](CC(C)C)C(=O)N[C@@H](CO)C(=O)N[C@@H](CCCNC(N)=O)C(=O)N[C@@H](CO)C(=O)NCC(=O)NCC(=O)N[C@H](C(=O)N[C@H](C(=O)N[C@@H](CCCCNC(=N)N)C(=O)N[C@@H](CCCCN)C(=O)N[C@@H](CC(N)=O)C(=O)N[C@@H](Cc1ccccc1)C(=O)N[C@H](C(=O)N1CCC[C@H]1C(=O)N[C@H](C(=O)N[C@@H](CC(=O)O)C(=O)N[C@H](C(=O)NCC(=O)N1CCC[C@@H]1C(=O)N[C@@H](Cc1ccc(-c2ccccc2)cc1)C(=O)N[C@@H](C)C(=O)N[C@@H](Cc1ccccc1)C(N)=O)C(C)C)[C@@H](C)O)C(C)C)C(C)C)C(C)C)[C@@H](C)O)C(C)C,inactive
6,CC(=O)N[C@@H](Cc1c[nH]c2ccccc12)C(=O)N[C@H](C(=O)N[C@H](C(=O)N[C@@H](Cc1cnc[nH]1)C(=O)N[C@@H](CCCNC(N)=O)C(=O)N[C@@H](CC(C)C)C(=O)N[C@@H](C)C(=O)NCC(=O)N[C@@H](CC(C)C)C(=O)N[C@@H](CC(C)C)C(=O)N[C@@H](CO)C(=O)N[C@@H](CCCNC(N)=O)C(=O)N[C@@H](CO)C(=O)NCC(=O)NCC(=O)N[C@H](C(=O)N[C@H](C(=O)N[C@@H](CCCCNC(=N)N)C(=O)N[C@@H](CCCCN)C(=O)N[C@@H](CC(N)=O)C(=O)N[C@@H](Cc1ccccc1)C(=O)N[C@H](C(=O)N1CCC[C@H]1C(=O)N[C@H](C(=O)N[C@@H](CC(=O)O)C(=O)N[C@H](C(=O)NCC(=O)NC1(C(=O)N[C@@H](Cc2ccccc2)C(=O)N[C@@H](C)C(=O)N[C@@H](Cc2ccccc2)C(N)=O)CCNCC1)C(C)C)[C@@H](C)O)C(C)C)C(C)C)C(C)C)[C@@H](C)O)C(C)C,inactive
7,CC(=O)N[C@@H](Cc1c[nH]c2ccccc12)C(=O)N[C@H](C(=O)N[C@H](C(=O)N[C@@H](Cc1cnc[nH]1)C(=O)N[C@@H](CCCNC(N)=O)C(=O)N[C@@H](CC(C)C)C(=O)N[C@@H](C)C(=O)NCC(=O)N[C@@H](CC(C)C)C(=O)N[C@@H](CC(C)C)C(=O)N[C@@H](CO)C(=O)N[C@@H](CCCNC(N)=O)C(=O)N[C@@H](CO)C(=O)NCC(=O)NCC(=O)N[C@H](C(=O)N[C@H](C(=O)N[C@@H](CCCCNC(=N)N)C(=O)N[C@@H](CCCCN)C(=O)N[C@@H](CC(N)=O)C(=O)N[C@@H](Cc1ccccc1)C(=O)N[C@H](C(=O)N1CCC[C@H]1C(=O)N[C@H](C(=O)N[C@@H](CC(=O)O)C(=O)N[C@H](C(=O)NCC(=O)N1C[C@H](O)C[C@H]1C(=O)N[C@@H](Cc1ccccc1)C(=O)N[C@@H](C)C(=O)N[C@@H](Cc1ccccc1)C(N)=O)C(C)C)[C@@H](C)O)C(C)C)C(C)C)C(C)C)[C@@H](C)O)C(C)C,inactive

# Second part, the compound after the results:
row,Activity,SMILES
1,inactive,CC(=O)N[C@@H](Cc1c[nH]c2ccccc12)C(=O)N[C@H](C(=O)N[C@H](C(=O)N[C@@H](Cc1cnc[nH]1)C(=O)N[C@@H](CCCNC(N)=O)C(=O)N[C@@H](CC(C)C)C(=O)N[C@@H](C)C(=O)NCC(=O)N[C@@H](CC(C)C)C(=O)N[C@@H](CC(C)C)C(=O)N[C@@H](CO)C(=O)N[C@@H](CCCNC(N)=O)C(=O)N[C@@H](CO)C(=O)NCC(=O)NCC(=O)N[C@H](C(=O)N[C@H](C(=O)N[C@@H](CCCCNC(=N)N)C(=O)N[C@@H](CCCCN)C(=O)N[C@@H](CC(N)=O)C(=O)N[C@@H](Cc1ccccc1)C(=O)N[C@H](C(=O)N1CCC[C@H]1C(=O)N[C@H](C(=O)N[C@@H](CC(=O)O)C(=O)N[C@H](C(=O)NCC(=O)NC(C)(C)C(=O)N[C@@H](Cc1ccccc1)C(=O)N[C@@H](C)C(=O)N[C@@H](Cc1ccccc1)C(N)=O)C(C)C)[C@@H](C)O)C(C)C)C(C)C)C(C)C)[C@@H](C)O)C(C)C
2,inactive,CC(=O)N[C@@H](Cc1c[nH]c2ccccc12)C(=O)N[C@H](C(=O)N[C@H](C(=O)N[C@@H](Cc1cnc[nH]1)C(=O)N[C@@H](CCCNC(N)=O)C(=O)N[C@@H](CC(C)C)C(=O)N[C@@H](C)C(=O)NCC(=O)N[C@@H](CC(C)C)C(=O)N[C@@H](CC(C)C)C(=O)N[C@@H](CO)C(=O)N[C@@H](CCCNC(N)=O)C(=O)N[C@@H](CO)C(=O)NCC(=O)NCC(=O)N[C@H](C(=O)N[C@H](C(=O)N[C@@H](CCCCNC(=N)N)C(=O)N[C@@H](CCCCN)C(=O)N[C@@H](CC(N)=O)C(=O)N[C@@H](Cc1ccccc1)C(=O)N[C@H](C(=O)N1CCC[C@H]1C(=O)N[C@H](C(=O)N[C@@H](CC(=O)O)C(=O)N[C@H](C(=O)NCC(=O)N1CCC[C@H]1CC(=O)N[C@@H](Cc1ccccc1)C(=O)N[C@@H](C)C(=O)N[C@@H](Cc1ccccc1)C(N)=O)C(C)C)[C@@H](C)O)C(C)C)C(C)C)C(C)C)[C@@H](C)O)C(C)C
3,inactive,CC(=O)N[C@H](C(=O)N[C@H](C(=O)N[C@@H](Cc1cnc[nH]1)C(=O)N[C@@H](CCCNC(=N)N)C(=O)N[C@@H](CC(C)C)C(=O)N[C@@H](C)C(=O)NCC(=O)N[C@@H](CC(C)C)C(=O)N[C@@H](CC(C)C)C(=O)N[C@@H](CO)C(=O)N[C@@H](CCCNC(=N)N)C(=O)N[C@@H](CO)C(=O)NCC(=O)NCC(=O)N[C@H](C(=O)N[C@H](C(=O)N[C@@H](CCCNC(=N)N)C(=O)N[C@@H](CCCCN)C(=O)N[C@@H](CC(N)=O)C(=O)N[C@@H](Cc1ccccc1)C(=O)N[C@H](C(=O)N1CCC[C@H]1C(=O)N[C@H](C(=O)N[C@@H](CC(=O)O)C(=O)N[C@H](C(=O)NCC(=O)N1CCC[C@H]1C(=O)N[C@@H](Cc1ccccc1)C(=O)N[C@@H](C)C(=O)N[C@@H](Cc1ccccc1)C(N)=O)C(C)C)[C@@H](C)O)C(C)C)C(C)C)C(C)C)[C@@H](C)O)C(C)C (Ac-VTHRLAGLLSRSGGVVRKNFVPTDVGPFAF-NH2)
